Assay results: the CheMixHub viscosity set

Assay: xn = mol fraction of the nth substance listed

CCOCCO + O
viscosity [mPa·s]
Conditions	101 kPa	101.33 kPa
293.15 K, x1 = 0.02202	1.422	–
293.15 K, x1 = 0.04761	2.02	–
293.15 K, x1 = 0.07883	2.731	–
293.15 K, x1 = 0.1177	3.402	–
293.15 K, x1 = 0.1666	3.943	–
293.15 K, x1 = 0.2304	4.205	–
293.15 K, x1 = 0.318	4.219	–
293.15 K, x1 = 0.4441	3.838	–
293.15 K, x1 = 0.5303	3.471	–
293.15 K, x1 = 0.6418	3.081	–
293.15 K, x1 = 0.7202	2.836	–
293.15 K, x1 = 0.8271	2.502	–
293.15 K, x1 = 0.9078	2.27	–
298.15 K, x1 = 0.0104	–	1.04
298.15 K, x1 = 0.0217	–	1.25
298.15 K, x1 = 0.0341	–	1.44
298.15 K, x1 = 0.0476	–	1.7
298.15 K, x1 = 0.0625	–	1.97
298.15 K, x1 = 0.0789	–	2.26
298.15 K, x1 = 0.0972	–	2.54
298.15 K, x1 = 0.1176	–	2.8
298.15 K, x1 = 0.1406	–	3.05
298.15 K, x1 = 0.1666	–	3.24
298.15 K, x1 = 0.1964	–	3.38
298.15 K, x1 = 0.2307	–	3.48
298.15 K, x1 = 0.2707	–	3.47
298.15 K, x1 = 0.3181	–	3.45
298.15 K, x1 = 0.3749	–	3.33
298.15 K, x1 = 0.4443	–	3.14
298.15 K, x1 = 0.5311	–	2.89
298.15 K, x1 = 0.6428	–	2.58
298.15 K, x1 = 0.7916	–	2.19
298.15 K, x2 = 0.11	–	1.991
298.15 K, x2 = 0.2089	–	2.215
298.15 K, x2 = 0.294	–	2.441
298.15 K, x2 = 0.4058	–	2.765
298.15 K, x2 = 0.5043	–	3.031
298.15 K, x2 = 0.5995	–	3.311
298.15 K, x2 = 0.7033	–	3.504
298.15 K, x2 = 0.8037	–	3.376
298.15 K, x2 = 0.902	–	2.55
303.15 K, x1 = 0.0104	–	0.92
303.15 K, x1 = 0.0217	–	1.11
303.15 K, x1 = 0.02202	1.097	–
303.15 K, x1 = 0.0341	–	1.27
303.15 K, x1 = 0.0476	–	1.5
303.15 K, x1 = 0.04761	1.485	–
303.15 K, x1 = 0.0625	–	1.72
303.15 K, x1 = 0.07883	1.928	–
303.15 K, x1 = 0.0789	–	1.96
303.15 K, x1 = 0.0972	–	2.18
303.15 K, x1 = 0.1176	–	2.4
303.15 K, x1 = 0.1177	2.355	–
303.15 K, x1 = 0.1406	–	2.61
303.15 K, x1 = 0.1666	2.703	2.78
303.15 K, x1 = 0.1964	–	2.9
303.15 K, x1 = 0.2304	2.92	–
303.15 K, x1 = 0.2307	–	3
303.15 K, x1 = 0.2707	–	3.03
303.15 K, x1 = 0.318	2.951	–
303.15 K, x1 = 0.3181	–	3.02
303.15 K, x1 = 0.3749	–	2.93
303.15 K, x1 = 0.4443	–	2.77
303.15 K, x1 = 0.5303	2.547	–
303.15 K, x1 = 0.5311	–	2.56
303.15 K, x1 = 0.6418	2.28	–
303.15 K, x1 = 0.6428	–	2.31
303.15 K, x1 = 0.7202	2.126	–
303.15 K, x1 = 0.7916	–	1.97
303.15 K, x1 = 0.8271	1.912	–
303.15 K, x1 = 0.9078	1.764	–
308.15 K, x1 = 0.1406	–	2.24
308.15 K, x1 = 0.1666	–	2.38
308.15 K, x1 = 0.1964	–	2.49
308.15 K, x1 = 0.2307	–	2.58
308.15 K, x1 = 0.2707	–	2.62
308.15 K, x1 = 0.3181	–	2.61
308.15 K, x1 = 0.3749	–	2.55
308.15 K, x1 = 0.4443	–	2.43
308.15 K, x1 = 0.5311	–	2.26
308.15 K, x1 = 0.6428	–	2.04
308.15 K, x1 = 0.7916	–	1.76
308.15 K, x2 = 0.1041	–	1.418
308.15 K, x2 = 0.1944	–	1.621
308.15 K, x2 = 0.2933	–	1.785
308.15 K, x2 = 0.4988	–	2.148
308.15 K, x2 = 0.5964	–	2.307
308.15 K, x2 = 0.699	–	2.385
308.15 K, x2 = 0.7918	–	2.32
308.15 K, x2 = 0.8469	–	2.111
308.15 K, x2 = 0.8976	–	1.787
308.15 K, x2 = 0.9491	–	1.279
313.15 K, x1 = 0.02202	0.8665	–
313.15 K, x1 = 0.04761	1.14	–
313.15 K, x1 = 0.07883	1.456	–
313.15 K, x1 = 0.1177	1.727	–
313.15 K, x1 = 0.1666	1.967	–
313.15 K, x1 = 0.2304	2.124	–
313.15 K, x1 = 0.318	2.14	–
313.15 K, x1 = 0.4441	2.011	–
313.15 K, x1 = 0.5303	1.9	–
313.15 K, x1 = 0.6418	1.731	–
313.15 K, x1 = 0.7202	1.614	–
313.15 K, x1 = 0.8271	1.491	–
313.15 K, x1 = 0.9078	1.399	–
323.15 K, x1 = 0.02202	0.6974	–
323.15 K, x1 = 0.04761	0.8748	–
323.15 K, x1 = 0.07883	1.105	–
323.15 K, x1 = 0.1177	1.32	–
323.15 K, x1 = 0.1666	1.479	–
323.15 K, x1 = 0.2304	1.613	–
323.15 K, x1 = 0.318	1.656	–
323.15 K, x1 = 0.4441	1.591	–
323.15 K, x1 = 0.5303	1.514	–
323.15 K, x1 = 0.6418	1.398	–
323.15 K, x1 = 0.7202	1.324	–
323.15 K, x1 = 0.8271	1.212	–
323.15 K, x1 = 0.9078	1.133	–

NCCCC[C@H](N)C(=O)[O-].[K+] + O
viscosity [mPa·s]
Conditions	293.15 K	298.15 K	303.15 K	308.15 K	313.15 K	318.15 K	323.15 K
100 kPa, x1 = 0.01	–	1.138	–	–	–	–	–
100 kPa, x1 = 0.02	–	1.642	–	–	–	–	–
101.3 kPa, x1 = 0.00479	1.183	1.051	0.9411	0.847	0.7675	0.7007	0.6435
101.3 kPa, x1 = 0.00923	1.393	1.226	1.092	0.9834	0.8868	0.8069	0.7376
101.3 kPa, x1 = 0.015	1.599	1.408	1.251	1.12	1.01	0.916	0.8358
101.3 kPa, x1 = 0.01985	1.92	1.683	1.49	1.328	1.194	1.077	0.9784
101.3 kPa, x1 = 0.03254	2.783	2.408	2.108	1.861	1.655	1.483	1.337
101.3 kPa, x1 = 0.0375	2.961	2.59	2.233	1.989	1.744	1.577	1.404
101.3 kPa, x1 = 0.0395	–	–	1.868	–	1.448	–	1.128
101.3 kPa, x1 = 0.04425	4.174	–	3.071	–	2.351	2.094	1.872
101.3 kPa, x1 = 0.0501	4.177	3.576	3.074	2.687	2.353	2.092	1.861
101.3 kPa, x1 = 0.0595	–	–	3.237	–	2.45	–	1.863
101.3 kPa, x1 = 0.06157	6.645	5.544	4.71	4.049	3.517	3.081	2.722
101.3 kPa, x1 = 0.0617	5.683	4.806	4.086	3.537	3.072	2.71	2.394
101.3 kPa, x1 = 0.0705	7.066	5.922	4.999	4.299	3.709	3.251	2.858
101.3 kPa, x1 = 0.0741	7.638	6.379	5.359	4.594	3.949	3.453	3.025
101.3 kPa, x1 = 0.0855	–	–	4.606	–	3.452	–	2.598

CC(C)CCO + c1ccccc1
viscosity [mPa·s], 101 kPa
Conditions	293.15 K	298.15 K	303.15 K	308.15 K	313.15 K	318.15 K	323.15 K
x1 = 0.05	0.673	0.627	0.586	0.548	0.515	0.484	0.456
x1 = 0.1	0.705	0.656	0.612	0.573	0.537	0.505	0.475
x1 = 0.15	0.739	0.688	0.641	0.6	0.562	0.527	0.496
x1 = 0.2	0.777	0.723	0.673	0.629	0.589	0.552	0.519
x1 = 0.25	0.819	0.761	0.708	0.661	0.618	0.58	0.544
x1 = 0.3	0.866	0.804	0.748	0.697	0.651	0.61	0.572
x1 = 0.35	0.919	0.852	0.791	0.737	0.688	0.643	0.602
x1 = 0.4	0.979	0.906	0.84	0.782	0.728	0.68	0.636
x1 = 0.45	1.046	0.967	0.896	0.832	0.774	0.722	0.674
x1 = 0.5	1.124	1.037	0.96	0.89	0.826	0.769	0.717
x1 = 0.55	1.214	1.119	1.033	0.956	0.886	0.823	0.766
x1 = 0.6	1.321	1.214	1.118	1.032	0.955	0.885	0.822
x1 = 0.65	1.447	1.326	1.219	1.122	1.036	0.957	0.887
x1 = 0.7	1.6	1.462	1.339	1.23	1.131	1.042	0.962
x1 = 0.75	1.789	1.629	–	–	–	–	–
